Measurements: article PMC5080355, “Interaction of the Nitrogen Regulatory Protein GlnB (PII) with Biotin Carboxyl Carrier Protein (BCCP) Controls Acetyl-CoA Levels in the Cyanobacterium Synechocystis sp. PCC 6803” (Frontiers in Microbiology, 2016)

Columns and labels:
[1] = biological target: T1, SyGlnB (PII) in complex with SyBCCP (Synechocystis sp. PCC 6803, UniProt Q55247); experiment: pull-down of GlnB with His-BCCP on Ni-NTA magnetic beads, SDS-PAGE densitometry, 2-OG titration; assay type: binding; design: gene glnB; GlnB C-terminally Strep-tagged (pASK-IBA3glnBSc); bait His-tagged BCCP (pET15accB), biotinylated with E. coli BirA; both expressed in E. coli and purified; GlnB homotrimer; with Biotin carboxyl carrier protein of acetyl-CoA carboxylase; conditions: read-out: apparent IC50
[2] = biological target: T2, SyGlnB (PII) in complex with SyBCCP (Synechocystis sp. PCC 6803, UniProt Q55247, S49C); experiment: biochemical
T2 construct: gene glnB

[3] = biological target: T1, SyGlnB (PII) in complex with SyBCCP; experiment: biochemical; design: gene glnB
[4] = biological target: T3, SyGlnB (PII) in complex with SyBCCP (Synechocystis sp. PCC 6803, UniProt Q55247, S49D); experiment: biochemical
T3 construct: gene glnB
T3 sequence (Q55247 whole entry S49D): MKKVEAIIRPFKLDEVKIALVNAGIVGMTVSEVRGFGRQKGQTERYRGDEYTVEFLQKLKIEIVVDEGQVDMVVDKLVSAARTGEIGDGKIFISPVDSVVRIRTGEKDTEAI
T3 sequence (Q55120 entry or part of it, stated change not applied, further chain): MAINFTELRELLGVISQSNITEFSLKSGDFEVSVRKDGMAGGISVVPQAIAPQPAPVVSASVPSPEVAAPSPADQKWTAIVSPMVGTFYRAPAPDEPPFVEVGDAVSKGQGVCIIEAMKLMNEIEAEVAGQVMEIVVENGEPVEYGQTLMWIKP

T1 sequence (Q55247 whole entry): as the sequence (Q55247 whole entry S49D) above, with D49S counted along it
T1 sequence (Q55120 1-154 partner): as the sequence (Q55120 entry or part of it, stated change not applied, further chain) above
T2 sequence (Q55120 entry or part of it, stated change not applied): as the sequence (Q55120 entry or part of it, stated change not applied, further chain) above
T2 sequence (Q55247 whole entry S49C): as the sequence (Q55247 whole entry S49D) above, with D49C counted along it

Row | IC50 [1] [µM] | EC50 [2] [µM] | EC50 [3] [µM] | EC50 [4] [µM] | SMILES
1 | 41.3 |  |  |  | O=C(O)CCC(=O)C(=O)O [2-OG]
2 |  | 143 | 68 | 231 | Nc1ncnc2c1ncn2[C@@H]1O[C@H](COP(=O)(O)OP(=O)(O)OP(=O)(O)O)[C@@H](O)[C@H]1O [ATP]
